# Test results: ChEMBL document CHEMBL3425491, “Development of novel ACK1/TNK2 inhibitors using a fragment-based approach” (J Med Chem, 2015)
# The source made the active and inactive calls. No cut-off for these calls is given here.
# Legend:
# Activated CDC42 kinase 1 = Activated CDC42 kinase 1 (Homo sapiens, UniProt Q07912); test: Inhibition of human ACK1 kinase activity using biotinylated ATGRYYAMKIL - AKT peptide substrate assessed as phosphorylation at 10 uM by ELISA; type: single protein
# LAPC4 = test: Anticancer activity against human LAPC4 cells assessed as inhibition of cell growth up to 10 uM after 72 hrs by trypan blue exclusion assay; type: functional, cell-based
# Chain of Activated CDC42 kinase 1 (Q07912 whole entry, looked up): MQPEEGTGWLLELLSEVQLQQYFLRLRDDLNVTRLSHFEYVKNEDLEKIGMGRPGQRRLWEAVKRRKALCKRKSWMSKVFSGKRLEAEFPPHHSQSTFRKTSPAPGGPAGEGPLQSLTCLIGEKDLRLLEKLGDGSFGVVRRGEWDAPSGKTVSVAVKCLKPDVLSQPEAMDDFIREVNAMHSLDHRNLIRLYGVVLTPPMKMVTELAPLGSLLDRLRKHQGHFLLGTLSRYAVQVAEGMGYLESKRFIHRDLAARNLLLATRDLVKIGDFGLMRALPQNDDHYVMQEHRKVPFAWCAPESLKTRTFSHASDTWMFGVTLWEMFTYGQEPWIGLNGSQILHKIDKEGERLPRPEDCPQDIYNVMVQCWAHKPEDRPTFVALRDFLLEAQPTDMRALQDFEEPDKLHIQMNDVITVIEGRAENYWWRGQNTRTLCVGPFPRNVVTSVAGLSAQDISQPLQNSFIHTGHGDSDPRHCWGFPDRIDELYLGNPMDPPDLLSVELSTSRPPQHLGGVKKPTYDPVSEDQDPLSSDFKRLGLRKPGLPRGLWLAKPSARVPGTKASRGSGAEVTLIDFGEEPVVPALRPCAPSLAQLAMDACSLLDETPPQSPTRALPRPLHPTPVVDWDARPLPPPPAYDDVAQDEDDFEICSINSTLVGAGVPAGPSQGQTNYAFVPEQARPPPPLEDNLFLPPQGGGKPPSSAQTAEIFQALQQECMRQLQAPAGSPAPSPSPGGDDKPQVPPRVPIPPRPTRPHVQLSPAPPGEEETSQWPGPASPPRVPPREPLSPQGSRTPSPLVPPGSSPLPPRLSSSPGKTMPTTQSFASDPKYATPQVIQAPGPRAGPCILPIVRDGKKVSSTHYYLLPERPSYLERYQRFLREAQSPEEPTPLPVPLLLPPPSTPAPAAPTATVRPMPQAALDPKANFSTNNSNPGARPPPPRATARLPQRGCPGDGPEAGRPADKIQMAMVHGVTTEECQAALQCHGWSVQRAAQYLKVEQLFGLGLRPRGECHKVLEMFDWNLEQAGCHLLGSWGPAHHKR
Compound,inhibition (Activated CDC42 kinase 1) [%],inhibition (LAPC4)
O=C(Nc1c(F)cccc1Cl)c1cnc(Nc2ccc(C3CCNCC3)cc2)nc1NCC1CCCO1 (racemic),97,
CN1CCN(c2ccc(Nc3nccc(NCC4CCCO4)n3)cc2)CC1 (stereo not given),16,
Oc1ccc(Nc2ncc(Br)c(NCC3CCCO3)n2)cc1F (stereo not given),76,
Clc1cnc(Nc2ccc(C3CCNCC3)cc2)nc1NCC1CCCO1 (racemic),79.5,
Oc1ccc(Nc2ncc(Cl)c(NCC3CCCO3)n2)cc1 (stereo not given),65,
c1ccc(-c2oc3ncnc(NC[C@@H]4CCCO4)c3c2-c2ccccc2)cc1,,Active
CN1CCN(c2ccc(Nc3ncc(Br)c(NCC4CCCO4)n3)cc2)CC1 (stereo not given),93,
O=C(O)C1CCN(c2ccc(Nc3ncc(Br)c(NCC4CCCO4)n3)cc2)CC1 (racemic),85,
O=C(O)CCCc1ccc(Nc2ncc(Cl)c(NCC3CCCO3)n2)cc1 (stereo not given),60,
Brc1cnc(Nc2ccc(C3CCNCC3)cc2)nc1NCC1CCCO1 (racemic),84.5,
COc1ccc(Nc2ncc(Br)c(NCC3CCCO3)n2)cc1 (stereo not given),67,
Clc1cnc(Nc2ccc(N3CCNCC3)cc2)nc1NCC1CCCO1 (racemic),82,
COc1ccc(Nc2ncc(C(=O)Nc3c(F)cccc3Cl)c(NCC3CCCO3)n2)cc1 (racemic),68,
O=C(Nc1c(F)cccc1Cl)c1cnc(Nc2ccc(O)cc2)nc1NCC1CCCO1 (racemic),85,
CN1CCN(c2ccc(Nc3ncc(Cl)c(NCC4CCCO4)n3)cc2)CC1 (racemic),90.5,
